Experimental data as given in patent US8268831B2, “Compounds derived from 2-(3-methylenedioxy)-benzoyl indol” (Biolab Sanus Farmaceutica Ltda., priority 2008, dated 2012).

How the values were obtained:
[1] = test system: isolated cavernous body of rabbit; assay: Relaxing effect on isolated cavernous body of rabbit pre-contracted with phenylephrine; format: cell-based; conditions: cumulative concentrations 1 to 1000 nM
Protocol: Experiments used male rabbits weighing between 3.5 and 4.0 Kg. The animals were anesthetized with sodium pentobarbital (40 mg/kg, i.p), and the abdominal cavity opened for the withdrawal of the penis from the animals. The tissues were placed in a Petri dish containing Krebs-Henseleit solution pH 7.4 (NaCl 118 mM; KCl 4.8 mM; CaCl2 2.5 mM; MgSO4 1.2 mM; KH2PO4 0.9 mM; NaHCO3 25 mM; glucose 11 mM) warmed to 37° C., and cartilage and adherent tissue were carefully removed. In general 3 segments containing approximately 2 cm of length of cavernous body were obtained from each animal. The preparations were mounted on glass reservoirs containing 5 ml of Krebs solution containing indomethacin (5.6 μM) at 37° C., continuously aerated with a mixture of 95% of O2 and 5% of CO2.
The preparations were submitted to a period of equilibrium of at least 90 minutes, under tension of 2 g, during which the bath solution was renewed each 15 minutes. Changes of isometric tension were registered using a TRI-201 force transducer (Letica Scientific Instruments, Spain) connected a polygraph.
After the period of stabilization, the preparations were treated with single concentrations of […] of phenylephrine. […]
The relaxation responses caused by the compounds were calculated in relation to the contractile response of phenylephrine, which is considered as 100% of contraction. […]

[2] = test system: isolated aorta of rat; assay: Relaxing effect on isolated rat aorta rings pre-contracted with phenylephrine; format: cell-based; conditions: rat aorta with endothelium previously treated with phenylephrine; cumulative concentrations 1 to 1000 nM; FIG. 2
Protocol: Experiments used male Wistar rats weighing between 300-350 g. The animals were maintained in an environment with humidity (60-80%) and controlled temperature (22±2° C.), with light-dark cycles of 12 hours and free access to water and rations. Before experiments, the animals were acclimatized in the laboratory for a minimum period of 1 hour. Each animal was used only one time in each test.
The animals were sacrificed by deepening anesthesia with ketamine and xylazine hydrochloride, followed by exsanguination made by section of the carotid artery. After opening of the thoracic cavity, the aorta was carefully removed and transferred to a Petri dish containing Krebs-Henseleit solution, with the following composition (mM): NaCI-118; KCl 4.7; CaCl2 2.5; MgSO4 1.2; KH2PO4 0.9; NaHCO3 25; glucose 11. Afterwards, adipose and adjacent connective tissues were carefully removed. […]
After a period of equilibrium of 60 minutes, the preparations were treated with phenylephrine (0.3-1 μM), and after stabilization of the tonic contraction of the preparation, the integrity of the vascular endothelium was evaluated by the capacity of acetylcholine (ACh, 1 μM) to induce relaxation in the preparations. […]

[3] = test system: spontaneous erections in male rats; assay: Test of sexual behavior in rats (spontaneous erections) after oral administration; format: in vivo, rat; conditions: 10 mg/kg oral, observed for 1 hour in presence of females, significantly increased compared to vehicle, average±SEM, FIG. 3
Protocol: The utilized protocol was adapted from literature articles (Hosseinzadeh et al., 2008; Rizzo et al., 2008). Two days before execution of experiments, couples of males and females were isolated in plastic boxes. In this period, males were housed for 1 hour per day in reinforced metal cages, rectangular with dimensions of 40×23×33 cm. On the day of the test, the male rats were treated with 10 mg/kg (oral) of compound BL-122 or only with vehicle (saline containing 10% of DMSO). Immediately afterwards, animals were placed in observation cages. The rats that received treatment by oral route were fasted for 4 hours before the test. One and a half (1.5) hours after the oral treatment, the females were placed with the respective males in the cages.

- EC50 ([1]; Oryctolagus cuniculus, cavernous body of rabbit previously contracted with phenylephrine, value with interval in brackets): 0.0159 µM
Compound: CN1CC(=O)N[C@H](Cc2c(C(=O)c3ccc4c(c3)OCO4)[nH]c3ccccc23)C1=O [Compound BL-122, (R)-3-((2-(benzo[d][1,3]dioxol-5-carbonyl)-1H-indol-3-yl)methyl)-1-methylpiperazine-2,5-dione]
- maximum relaxation (efficacy) ([1]; cavernous body of rabbit previously contracted with phenylephrine (contraction = 100%), average±SEM): 63.1±7.8%
- relaxation of rat aorta preparations [2]: promoted relaxation
- spontaneous erections [3]: about 6.4±2.0
